Results reported in patent publication US6960342B2, “Method for inhibiting pathogenic fungi in plants using Bacillus amyloliquefaciens” (National Taiwan University, priority 2002, dated 2005).

Assays:
Format in all cases: in vivo
Botrytis elliptica [1] = test: B190 formulations on Botrytis elliptica infected lilies in field; conditions: B190 1 × 10^5 cfu/ml, 3 applications (10 days/interval), fourteen days after the last application, scale 0 to 4
Method: Bacillus amyloliquefaciens B190 was cultured in a flask containing 1% rice chaff and 99% de-ion water. Then the flask was positioned on a rotary shaker located in an incubator. B190 was incubated at an ambient temperature of 25±5° C. for 3 days. Thereafter, the cultured B190 was collected by means of centrifugation (3000 rpm/10 minutes; Tomy CM-60 RN, Seiko, Japan). The pellet mixed with 1% (w/v) kaolin was used as a wettable powder (WP). The pellet mixed with 0.025% (v/v) heavy mineral oil and 0.1% Tween 80 was served as an emulsion (E).
Different chemicals or adjuvants were added to the wettable powder, emulsion or B190-containing filtrate as described above for investigating their inhibitory ability on lilies in the field. These chemicals include 0.025% Ca(OH)2, 0.05% Na2CO3, 0.025% NH4NO3 and 0.025% K2HPO4. The adjuvants comprise 0.1% Tween 80 and 0.05% mineral oil.
Unformulated B. amyloliquefaciens B190 and 100 p.p.m. flusilazole were used as controls. In addition, uninoculated and inoculated lily plants with B. elliptica were also included as controls. Applications of these treatments were carried out when flowering tissues reached 100 to 120 mm in diameter. Treatments were applied three times with intervals of 10 days. […] After inoculating B. elliptica for ten days, disease severity was scored as described above.

Botrytis elliptica [2] = test: B190 formulations on Botrytis elliptica infected lilies in greenhouse; conditions: B190 […] cfu/ml, 3 applications (10 days/interval), flusilazole 100 p.p.m., recorded ten days after the last application, scale 0 to 4
Method: Bacillus amyloliquefaciens B190 was cultured in a flask containing 1% rice chaff and 99% de-ion water. The flask was then positioned on a rotary shaker located in an incubator. B190 was incubated at 25±5° C. for 3 days. Thereafter, the B190-containing solution was filtered for application in the following experiments.
Different chemicals or adjuvants were added to the B190-containing filtrate for investigating their inhibitive capability on Botrytis elliptica infected lilies in greenhouse. The chemicals include 0.025% Ca(OH)2, 0.05% Na2CO3, 0.025% NH4NO3 and 0.025% K2HPO4. The adjuvants comprise 0.1% Tween 80 and 0.05% mineral oil.
Unformulated B. amyloliquefaciens B190 and 100 p.p.m. flusilazole were used as controls. In addition, uninoculated and inoculated lily plants with B. elliptica were also included as controls. Applications of these treatments were carried out when flowering tissues reached 30 to 50 mm in diameter. Treatments were applied three times with intervals of 10 days. Thereafter, 5 ml of B. elliptica spore suspension (1×10^3 conidia/ml) was inoculated on lily plants except the uninoculated control. Each different treatment had four replicates, and 5 lily plants were applied in every replicate. All treatments were arranged in a randomized complete block design. After inoculating B. elliptica for ten days, disease severity was scored as described above.

Botrytis elliptica [3] = test: Field trials, control of lily gray mold; disease severity; conditions: antagonist 1 × 10^5 cfu/ml or 100 ppm flusilazole, three applications, recorded 14 days after the last application, scale 0 to 4
Method: Lily fields in Taipei and I-Lan counties were selected for this experiment. Suspensions of the B190 and Botrytis elliptica were adjusted to about 1×10^5 cfu/ml and 1×10^3 conidia/ml, respectively, before application. 100 ppm of flusilazole (37% Emulsion, Du Pont, USA) was used for comparison. After spraying B190 or flusilazole by sprayer (MS sprayer, Taiwan), 5 ml of the spore suspension of Botrytis elliptica was sprayed onto each 100-day-old lily plant. A total of three sprays at 10-day intervals were applied. Each treatment consisted of 100 plants with 4 replicates. Every replicate was planted on a plot, which was 30 m long and 2 m wide. All the treatments were arranged based on randomized complete block design. Two weeks after the last spray, disease severity was assessed and analyzed as above-mentioned.

Question: With `C[Si](Cn1cncn1)(c1ccc(F)cc1)c1ccc(F)cc1` [Flusilazole, flusilazole] as the compound, how does the Disease severity (Botrytis elliptica [1]; I: two trials in I-Lan county) read?
Answer: The Disease severity was 0.23 cd.

Question: What about the Disease severity (Botrytis elliptica [1]; II: two trials in NTU experimental farm) of the same compound?
Answer: The Disease severity was 0.39 bc.

Question: And the Disease severity (Botrytis elliptica [2])?
Answer: The Disease severity was 0.32 ef.

Question: And the Disease severity (Botrytis elliptica [3]; I-Lan)?
Answer: The Disease severity was 0.80 b.

Question: What about the Disease severity (Botrytis elliptica [3]; Taipei) of the same compound?
Answer: The Disease severity was 0.31 bc.
